# Measurements as given in patent US20170027973A1, “MODULARION OF INVARIANT NATURAL KILLER T CELLS IN THE TREATMENT OF SEPSIS” (LONDON HEALTH SCIENCES CENTRE RESEARCH INC., priority 2014, published 2017).
# System: Jα18−/− mice with IAS
# Experiment: IAS model in iNKT-deficient Jα18−/− mice: murine sepsis score
# Assay type: in vivo, mouse
# Protocol: FIG. 4: Th2-polarizing glycolipid OCH reduces disease severity in IAS. C57BL/6 (B6) mice were concomitantly injected i.p. with fecal slurry (FS; 500 μL of 90 mg/mL solution) to induce intra-abdominal sepsis (IAS), and vehicle, OCH, or KRN7000. […] (c) iNKT-deficient Jα18−/− mice were given FS (500 μL of a 90 mg/mL solution) to induce IAS and concomitantly treated with OCH or vehicle. Murine sepsis scores were similar between vehicle and OCH-treated mice (n=3 per group). […] The percentages of T cells remained unchanged with administration of iNKT-specific glycolipid agonists (n=6, n=4, n=6, and n=3 for vehicle, OCH, Vehicle (KRN7000) and KRN7000 groups respectively). *p<0.05, **p<0.01 by Mann-Whitney U test. (d) Bacterial counts in blood and multiple organs were similar between vehicle-, OCH-, and KRN7000-treated mice with sepsis (n=7-9 per group). Data are representative of at least three independent experiments.
# Stool from the cecum of euthanized naïve B6 mice was expressed through an enterotomy, homogenized, and suspended in 0.9% normal saline (NS) to produce a fecal slurry at a final concentration of 90 mg/mL, for use in experiments on the same day. […] The mice were monitored and scored by two independent investigators—one of whom was blinded to the treatment—every 2-3 hours for the first 12 hours, and then every 1-2 hours thereafter. […]
smiles,measurement,value
CCCCCCCCCCCCCCCCCCCCCCCC(=O)N[C@@H](COC1OC(CO)C(O)C(O)C1O)[C@H](O)[C@H](O)CCCCC (stereo partly shown) [OCH],disease severity (MSS) versus vehicle,did not observe any differences
